In the supplement of paper PMC11208160:

Test: recombinant barcode read abundance after kanamycin selection (control-corrected) (log10(CPM+1)); higher = more efficient recombination; sequences stand for … in AGTGCAGAGAAAATCGGCCAGTTTTCTCTGCCTGCAGTCCGCATGCCGT…AGATTTATGCAGCGGACTGCCTTTCTCCCAAAGTGATAAACCGGACAGTATCATGGACCGGTTTTCCCGGTAATCCGTATTTGCAAGGTTGGTTTCACT; site = the 11-nt target
Outline: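 Values are log10(CPM+1) from a pooled E. coli screen of targets paired with IS621 bridge RNA target-binding loops. Recombination efficiency here means counts per million of recombinant-junction barcodes, averaged and control-corrected. Plates were chloramphenicol/ampicillin LB agar for the control and chloramphenicol/ampicillin/kanamycin with 0.1 mM IPTG, two replicates each.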
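Also: IS621 recombinase and bridge RNA in Escherichia coli cells.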

Sequence	recombinant barcode read abundance (log10)
TCCCTATCTTGGGTTCTAACCTGTTGCCT (site TGCCTATCTAG)	0.0386
TCCCTATCTTGGGTTCTAACCTGTTGCCT (site TTCCTATCTAG)	0.0651
TCCGACCCTTGGGTTCTAACCTGTTGCAC (site TCCGACCCTGT)	2.54
TCCGACCCTTGGGTTCTAACCTGTTGCAC (site TCCGTCCCTAT)	0.0486
TCCGAGACTTGGGTTCTAACCTGTTGCCG (site TCCGAGACTAG)	0.541
TCCGAGACTTGGGTTCTAACCTGTTGCCG (site TCCGAGACTCG)	1.93
TCCGAGACTTGGGTTCTAACCTGTTGCCG (site TCCGAGACTGG)	0.0458
TCCGAGACTTGGGTTCTAACCTGTTGCCG (site TCCGAGACTTG)	0.0796
TCCGATTCTTGGGTTCTAACCTGTTGCGT (site GCCTATTCTAC)	0.19
TCCGATTCTTGGGTTCTAACCTGTTGCGT (site TCCGATTCTAC)	1.7
TCCGCTACTTGGGTTCTAACCTGTTGCCT (site TCCGCTACTAG)	0.0438
TCCGCTACTTGGGTTCTAACCTGTTGCCT (site TCCGCTCCTAG)	0.0689
TCCGCTACTTGGGTTCTAACCTGTTGCCT (site TCCGCTGCTAG)	0.0537
TCCGCTACTTGGGTTCTAACCTGTTGCCT (site TCCGCTTCTAG)	0.107
TCCGCTTCTTGGGTTCTAACCTGTTGCCT (site TCCGCTACTAG)	0.321
TCCGCTTCTTGGGTTCTAACCTGTTGCCT (site TCCGCTCCTAG)	0.259
TCCGCTTCTTGGGTTCTAACCTGTTGCCT (site TCCGCTGCTAG)	0.0858
TCCGCTTCTTGGGTTCTAACCTGTTGCCT (site TCCGCTTCTAG)	0.487
TCCGCTTCTTGGGTTCTAACCTGTTGCTT (site AATCGAGCTCC)	0.0408
TCCGCTTCTTGGGTTCTAACCTGTTGCTT (site TCCGCTTCTAA)	0.0659
TCCGGTACTTGGGTTCTAACCTGTTGCTT (site TCCAGTACTAA)	0.0783
TCCGGTACTTGGGTTCTAACCTGTTGCTT (site TCCGGTACTAA)	0.438
TCCTAACCTTGGGTTCTAACCTGTTGCCT (site TCCTAACCTAG)	0.454
TCCTAACCTTGGGTTCTAACCTGTTGCCT (site TCCTAATCTAT)	0.0117
TCCTAAGCTTGGGTTCTAACCTGTTGCGG (site TCCTAAGCTCC)	1.67
TCCTAAGCTTGGGTTCTAACCTGTTGCGG (site TGCTAAGCTCA)	0.276

Sequence	recombinant barcode read abundance (log10)
TCCTAAGCTTGGGTTCTAACCTGTTGCTA (site TCCAAAGCTTA)	0.05
TCCTAAGCTTGGGTTCTAACCTGTTGCTA (site TCCCAAGCTTA)	0.227
TCCTAAGCTTGGGTTCTAACCTGTTGCTA (site TCCGAAGCTTA)	0.372
TCCTAAGCTTGGGTTCTAACCTGTTGCTA (site TCCTAAGCTTA)	0.161
TCCTAATCTTGGGTTCTAACCTGTTGCTT (site CGGGCTACTTG)	0.284
TCCTAATCTTGGGTTCTAACCTGTTGCTT (site TCCTAATCTAA)	0.111
TCCTATCCTTGGGTTCTAACCTGTTGCGA (site GTGGGAACTAA)	0.0465
TCCTATCCTTGGGTTCTAACCTGTTGCGA (site TCCTATCCTTC)	0.513
TCCTATGCTTGGGTTCTAACCTGTTGCCG (site GAAAGCTCTAC)	0.0567
TCCTATGCTTGGGTTCTAACCTGTTGCCG (site TCCTATGCTCG)	0.444
TCCTCGTCTTGGGTTCTAACCTGTTGCCT (site GCCTGGTCTAG)	0.00881
TCCTCGTCTTGGGTTCTAACCTGTTGCCT (site TCCTCGTCTAG)	0.669
TCCTGTACTTGGGTTCTAACCTGTTGCCT (site TCCTGTACTAG)	0.239
TCCTGTACTTGGGTTCTAACCTGTTGCCT (site TCCTGTCCTAT)	0.108
TCCTTAGCTTGGGTTCTAACCTGTTGCCG (site TCCTGAGCTCA)	0.155
TCCTTAGCTTGGGTTCTAACCTGTTGCCG (site TCCTTAGCTCG)	0.0503
TCGAACCCTTGGGTTCTAACCTGTTGCGG (site TCAAACCCTCC)	0.991
TCGAACCCTTGGGTTCTAACCTGTTGCGG (site TCCAACCCTCC)	0.168
TCGAACCCTTGGGTTCTAACCTGTTGCGG (site TCGAACCCTCC)	0.851
TCGAACCCTTGGGTTCTAACCTGTTGCGG (site TCTAACCCTCC)	0.0521
TCGAAGCCTTGGGTTCTAACCTGTTGCCT (site TCGAAACCTAG)	0.0823
TCGAAGCCTTGGGTTCTAACCTGTTGCCT (site TCGAACCCTAG)	0.207
TCGAAGCCTTGGGTTCTAACCTGTTGCCT (site TCGAAGCCTAG)	0.324
TCGAAGCCTTGGGTTCTAACCTGTTGCCT (site TCGAATCCTAG)	0.101
TCGAATTCTTGGGTTCTAACCTGTTGCCT (site TCGAATTCTAG)	0.109
TCGAATTCTTGGGTTCTAACCTGTTGCCT (site TCGATGTCTAG)	0.0943

Sequence	recombinant barcode read abundance (log10)
TCGAGAGCTTGGGTTCTAACCTGTTGCCG (site TCGAGAGCTCG)	0.441
TCGAGAGCTTGGGTTCTAACCTGTTGCCG (site TCGAGAGCTTA)	0.203
TCGAGTCCTTGGGTTCTAACCTGTTGCCT (site TCGAGTACTAG)	0.766
TCGAGTCCTTGGGTTCTAACCTGTTGCCT (site TCGAGTCCTAG)	0.101
TCGAGTCCTTGGGTTCTAACCTGTTGCCT (site TCGAGTGCTAG)	0.179
TCGAGTCCTTGGGTTCTAACCTGTTGCCT (site TCGAGTTCTAG)	0.0383
TCGAGTTCTTGGGTTCTAACCTGTTGCCT (site TCGAGTACTAG)	0.0829
TCGAGTTCTTGGGTTCTAACCTGTTGCCT (site TCGAGTCCTAG)	0.0637
TCGAGTTCTTGGGTTCTAACCTGTTGCCT (site TCGAGTGCTAG)	0.0736
TCGAGTTCTTGGGTTCTAACCTGTTGCCT (site TCGAGTTCTAG)	0.174
TCGCACACTTGGGTTCTAACCTGTTGCTA (site TCGCACACTTA)	0.148
TCGCACACTTGGGTTCTAACCTGTTGCTA (site TCGCACTCTTA)	0.0853
TCGCCTGCTTGGGTTCTAACCTGTTGCCT (site TCGCCTACTAG)	0.282
TCGCCTGCTTGGGTTCTAACCTGTTGCCT (site TCGCCTGCTAG)	0.191
TCGCTAACTTGGGTTCTAACCTGTTGCCT (site GCGCTAACTAG)	0.145
TCGCTAACTTGGGTTCTAACCTGTTGCCT (site TCGCTAACTAG)	0.322
TCGGACCCTTGGGTTCTAACCTGTTGCGA (site TCGAACCCTTC)	1
TCGGACCCTTGGGTTCTAACCTGTTGCGA (site TCGCACCCTTC)	0.12
TCGGACCCTTGGGTTCTAACCTGTTGCGA (site TCGGACCCTTC)	2.73
TCGGACCCTTGGGTTCTAACCTGTTGCGA (site TCGTACCCTTC)	0.23
TCGGAGTCTTGGGTTCTAACCTGTTGCCG (site TCGGAGTCTCA)	0.0935
TCGGAGTCTTGGGTTCTAACCTGTTGCCG (site TCGGAGTCTCG)	1.17
TCGGAGTCTTGGGTTCTAACCTGTTGCGT (site TCGGAGTCTAA)	0.499
TCGGAGTCTTGGGTTCTAACCTGTTGCGT (site TCGGAGTCTAC)	2.55
TCGGAGTCTTGGGTTCTAACCTGTTGCGT (site TCGGAGTCTAG)	0.969
